Data set [1] can be described thus: CD thermal denaturation of collagen model peptide triple helices (transition temperature). It counts as physicochemical. As to conditions: for T m (figure legends and text) / T m of the corresponding CMPs: CD denaturation at 225 nm; for T m (figure legends and text): PBS-buffer, 12 °C h-1 heating rate, * substitution-site altered, ** arginine-free peptides; for T m: triple-helix transition temperature, CD ellipticity at 225 nm, 60 µM peptide in PBS (10 mM Na2HPO4, 10 mM NaH2PO4, 150 mM NaCl, pH 7.0), 4 to 70 °C, heating rate 12 °C h-1, two-state fit, error ±1 °C; for T m of the corresponding CMPs: Table 2, CMP Ac‐(PPG)5‐PRG‐PPG‐[XY]G‐(PPG)3‐NH2, PBS, 12 °C h-1. As to the method:
For all prepared model peptides, CD spectra were recorded in phosphate‐buffered saline (after incubation for […] at 4 °C). […] The curves were fitted to assess triple‐helical stability by the transition temperature (T m, ±1 °C error) in a standardized fashion (see Table 1 and the Supporting Information). Selected denaturation curves are depicted in Figure 4.
CD spectra and Thermal Denaturation Experiments
Experimental setup - Vacuum-dried peptides were dissolved in phosphate-buffered saline (10 mM Na2HPO4, 10 mM NaH2PO4,
150 mM NaCl, pH = 7.0) and the solutions (60 µM peptide) were incubated at 4 °C for at least 48 h for trimerization. CD
measurements were performed on a Jasco J-715 spectropolarimeter using a quartz cuvette (Hellma Analytics, 1 mm path length) and
To study thermal transitions the ellipticity at 225 nm was monitored while increasing the temperature from 4 to
70 °C at a rather slow heating rate of 12 °C h-1 which was controlled electronically (Jasco PTC-348 WI Peltier element). According to
the literature this heating rate still corresponds to non-equilibrium conditions, however, the generated data can be used for internal
Data interpretation - For Tm-determination a two-state-model was employed in which three peptide chains combine to a triple helix
assuming a previously reported mathematical model (vide infra).[7][8] Constants were set (c = 0.00006, R = 8.31) and auxiliary
variables (P, U, V, K) were used to describe the temperature dependence of the folded fraction F. Thermal transition curves were
fitted by optimizing the parameters θmin, θmax, ΔH, and Tm using the Generalized Reduced Gradient algorithm implemented in the
solver tool of MS Excel.[9]. An error of ±1.0 °C was estimated for the resulting Tm values by repeating denaturation experiments.

The target of another data set is T1, HSP47 (Canis lupus familiaris, UniProt A0A8I3N7V2).
T1 construct: coding for residues 36LSP…RDEL418; inferred from Ni-NTA purification with imidazole elution; made in house; host or cells: E. coli BL21 (DE3)
T1 sequence (A0A8I3N7V2 36-418): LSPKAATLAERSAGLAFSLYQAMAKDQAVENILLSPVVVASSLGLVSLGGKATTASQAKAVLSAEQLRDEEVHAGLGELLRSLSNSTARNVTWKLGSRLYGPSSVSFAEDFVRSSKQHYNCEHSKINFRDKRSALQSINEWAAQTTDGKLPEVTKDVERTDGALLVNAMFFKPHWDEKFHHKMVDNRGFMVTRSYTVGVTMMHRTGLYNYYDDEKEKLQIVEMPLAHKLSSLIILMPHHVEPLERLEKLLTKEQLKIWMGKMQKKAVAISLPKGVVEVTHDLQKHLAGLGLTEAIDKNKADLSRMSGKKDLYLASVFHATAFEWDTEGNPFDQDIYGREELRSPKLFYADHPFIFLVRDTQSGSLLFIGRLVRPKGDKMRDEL
Description: HSP47 binding by biolayer interferometry (BLI). The arrangement: species or system canine. The conditions noted are these: Table S7; BLI curve fitting; KD = koff/kon; errors by propagation of uncertainty; read-out: KD (with error). The source says:
(1 picture or pasted object on this page, not shown here) […]
On the technique in general: Biolayer interferometry detects binding as a change in optical thickness at a sensor tip.

From paper PMC7154665, “Triple‐Helix‐Stabilizing Effects in Collagen Model Peptides Containing PPII‐Helix‐Preorganized Diproline Modules” (Angewandte Chemie (International Ed. in English), 2020) come the findings set out here.

What is called Kd is the constant that tells how readily two partners part at equilibrium.

Regarding “Ac‐(PPG)5‐PRG‐PPG‐HO‐ProM1G‐(PPG)3‐NH2 [Entry 5]”, in data set [1], the “T m (figure legends and text)” value is 43.0 °C; the T m is 43.0 °C. With “Ac‐(PPG)3‐ProM1G‐PPG‐PRG‐(PPG)5‐NH2 [Entry 14]”, the T m in data set [1] worked out at 40.5 °C. As to `COC(=O)[C@@H]1CC(O)CN1C(=O)[C@@H]1CCCN1C(C)=O` (stereo partly drawn) [ProHyp], in data set [1], the “T m (figure legends and text)” value is 49.8 °C; the “T m of the corresponding CMPs” value was determined as 49.8 °C. Turning to “Ac‐(PPG)5‐PRG‐PPG‐(EtO)2‐ProM2G‐(PPG)3‐NH2 [Entry 13]”, in data set [1], the “T m (figure legends and text)” value is 38.9 °C; the T m stood at 38.9 °C. Turning to Ac‐ProM1‐OMe, in data set [1], the “T m (figure legends and text)” value was 39.3 °C; the “T m of the corresponding CMPs” value turned out to be 39.3 °C. The ΔT m in data set [1] (in comparison to reference peptide Ac‐(PPG)5‐PRG‐(PPG)5‐NH2) was −6 °C. For the molecule “Ac-PPG-PPG-PPG-PPG-PPG-PRG-PPG-OOG-PPG-PPG-PPG-NH2 [HypHyp]”, the “T m (figure legends and text)” value in data set [1] is 46.9 °C. Turning to `N=C(N)NCCC[C@H](NC(=O)[C@@H]1CCCN1C(=O)CNC(=O)[C@@H]1CCCN1C(=O)[C@@H]1CCCN1C(=O)CNC(=O)[C@@H]1CCCN1C(=O)[C@@H]1CCCN1C(=O)CNC(=O)[C@@H]1CCCN1C(=O)[C@@H]1CCCN1C(=O)CNC(=O)[C@@H]1CCCN1C(=O)[C@@H]1CCCN1C(=O)CNC(=O)[C@@H]1CCCN1C(=O)[C@@H]1CCCN1C(=O)CCC(=O)NCCOCCOCCNC(=O)CCCC[C@@H]1SC[C@@H]2NC(=O)N[C@@H]21)C(=O)NCC(=O)N1CCC[C@H]1C(=O)N1CCC[C@H]1C(=O)NCC(=O)N1CCC[C@H]1C(=O)N1CCC[C@H]1C(=O)NCC(=O)N1CCC[C@H]1C(=O)N1CCC[C@H]1C(=O)NCC(=O)N1CCC[C@H]1C(=O)N1CCC[C@H]1C(=O)NCC(=O)N1CCC[C@H]1C(=O)N1CCC[C@H]1C(=O)NCC(N)=O` [PP], the Kd at HSP47 is 370.3 ± 1.8 nM.

“Ac‐(PPG)5‐PRG‐PPG‐(HO)2‐ProM2G‐(PPG)3‐NH2 [Entry 11]”: in data set [1], the “T m (figure legends and text)” value was 37.9 °C; the T m worked out at 37.9 °C. With “Ac‐(PPG)5‐PRG‐PPG‐(MeO)2‐ProM2G‐(PPG)3‐NH2 [Entry 12]”, in data set [1], the “T m (figure legends and text)” value was 40.2 °C; the T m is 40.2 °C. Consider “Ac-PPG-PPG-PPG-PPG-PPG-PPG-PPG-PPG-PPG-PPG-PPG-NH2 [ProPro**]”, for which the “T m (figure legends and text)” value in data set [1] stood at 45.9 °C. For “Ac‐(PPG)5‐PRG‐PPG‐(MeO)2‐ProM1G‐(PPG)3‐NH2 [Entry 7]”, in data set [1], the “T m (figure legends and text)” value is 43.6 °C; the T m was determined as 43.6 °C. In data set [1], “Ac‐(PPG)5‐PRG‐PPG‐ProM1G‐(PPG)3‐NH2 [Entry 3]” yielded a T m of 39.3 °C. Take “Ac‐(PPG)3‐H2‐ProM2G‐PPG‐PRG‐(PPG)5‐NH2 [Entry 15]”: the T m in data set [1] turned out to be 44.6 °C. Turning to “Ac-PPG-PPG-PPG-PPG-PPG-PRG-PPG-OPG-PPG-PPG-PPG-NH2 [HypPro]”, the “T m (figure legends and text)” value in data set [1] was 44.0 °C. “Ac‐(PPG)5‐PRG‐PPG‐(EtO)2‐ProM1G‐(PPG)3‐NH2 [Entry 8]”: in data set [1], the “T m (figure legends and text)” value was 44.5 °C; the T m amounted to 44.5 °C. For the molecule Ac‐(EtO)2‐ProM2‐OMe, the “T m of the corresponding CMPs” value in data set [1] was determined as 38.9 °C. Moreover, in data set [1] (with regard to the non‐functionalized system (ProM2 series)), the ΔT m was −6 °C. As to “Ac-PPG-PPG-PPG-PPG-PPG-PPG-PPG-[H2ProM2]G-PPG-PPG-PPG-NH2 [H2-ProM2**]”, in data set [1], the “T m (figure legends and text)” value is 44.4 °C. The molecule “Ac‐(PPG)5‐PRG‐PPG‐ProHypG‐(PPG)3‐NH2 [Entry 2]” showed a T m in data set [1] of 49.8 °C. Take Ac‐(EtO)2‐ProM1‐OMe: in data set [1], the “T m (figure legends and text)” value amounted to 44 °C; the “T m of the corresponding CMPs” value amounted to 44.5 °C.
